Results on 6 compounds are retold here after PubChem BioAssay AID1259407 (Chemical Carcinogenesis Research Information System (CCRIS), 2018).

This data set has as its system CCRIS mutagenicity, Ames/micronucleus/aberration tests. Put plainly: CCRIS mutagenicity studies.
Setting [1] is: Test System: AMES SALMONELLA TYPHIMURIUM, Strain/Indicator: TA100, Metabolic Activation: NONE, Method: STANDARD PLATE.

Activity calls are given as the source filed them. No rule for the calls is given here.

As for `CN(Cc1cnc2nc(N)nc(N)c2n1)c1c(Cl)cc(C(=O)N[C@@H](CCC(=O)O)C(=O)O)cc1Cl`, the mutagenic call runs as follows: (Test System: AMES SALMONELLA TYPHIMURIUM, Strain/Indicator: TA97, Metabolic Activation: HAMSTER, LIVER, S-9, AROCLOR 1254 (10 OR 30%), Method: PREINCUBATION) “inactive; negative”; (Test System: AMES SALMONELLA TYPHIMURIUM, Strain/Indicator: TA97, Metabolic Activation: NONE, Method: PREINCUBATION) “inactive; negative”; (Test System: AMES SALMONELLA TYPHIMURIUM, Strain/Indicator: TA97, Metabolic Activation: RAT, LIVER, S-9, AROCLOR 1254 (10 OR 30%), Method: PREINCUBATION) “inactive; negative”; (Test System: AMES SALMONELLA TYPHIMURIUM, Strain/Indicator: TA98, Metabolic Activation: HAMSTER, LIVER, S-9, AROCLOR 1254 (10 OR 30%), Method: PREINCUBATION) “inactive; negative”; (Test System: AMES SALMONELLA TYPHIMURIUM, Strain/Indicator: TA98, Metabolic Activation: NONE, Method: PREINCUBATION) “inactive; negative”; (Test System: AMES SALMONELLA TYPHIMURIUM, Strain/Indicator: TA98, Metabolic Activation: RAT, LIVER, S-9, AROCLOR 1254 (10 OR 30%), Method: PREINCUBATION) “inactive; negative”. The mutagenic call (Test System: AMES SALMONELLA TYPHIMURIUM, Strain/Indicator: TA100, Metabolic Activation: HAMSTER, LIVER, S-9, AROCLOR 1254 (10 OR 30%), Method: PREINCUBATION) was “inactive; negative”; the mutagenic call (Test System: AMES SALMONELLA TYPHIMURIUM, Strain/Indicator: TA100, Metabolic Activation: NONE, Method: PREINCUBATION) is “inactive; negative”; the mutagenic call (Test System: AMES SALMONELLA TYPHIMURIUM, Strain/Indicator: TA100, Metabolic Activation: RAT, LIVER, S-9, AROCLOR 1254 (10 OR 30%), Method: PREINCUBATION) is “inactive; negative”; the mutagenic call (Test System: AMES SALMONELLA TYPHIMURIUM, Strain/Indicator: TA1535, Metabolic Activation: HAMSTER, LIVER, S-9, AROCLOR 1254 (10 OR 30%), Method: PREINCUBATION) is “inactive; negative”; the mutagenic call (Test System: AMES SALMONELLA TYPHIMURIUM, Strain/Indicator: TA1535, Metabolic Activation: NONE, Method: PREINCUBATION) is “inactive; negative”; the mutagenic call (Test System: AMES SALMONELLA TYPHIMURIUM, Strain/Indicator: TA1535, Metabolic Activation: RAT, LIVER, S-9, AROCLOR 1254 (10 OR 30%), Method: PREINCUBATION) was “inactive; negative”. In addition, the mutagenic call is “inactive; negative” (Test System: AMES SALMONELLA TYPHIMURIUM, Strain/Indicator: TA1537, Metabolic Activation: HAMSTER, LIVER, S-9, AROCLOR 1254 (10 OR 30%), Method: PREINCUBATION); “inactive; negative” (Test System: AMES SALMONELLA TYPHIMURIUM, Strain/Indicator: TA1537, Metabolic Activation: NONE, Method: PREINCUBATION); “inactive; negative” (Test System: AMES SALMONELLA TYPHIMURIUM, Strain/Indicator: TA1537, Metabolic Activation: RAT, LIVER, S-9, AROCLOR 1254 (10 OR 30%), Method: PREINCUBATION).
Consider `CC(C)(C)NCC(O)COc1cccc2c1CCCC2=O` (stereo unspecified), for which the mutagenic call runs as follows: (Test System: AMES SALMONELLA TYPHIMURIUM, Strain/Indicator: TA98, Metabolic Activation: NONE, Method: STANDARD PLATE) “inactive; negative”; (Test System: AMES SALMONELLA TYPHIMURIUM, Strain/Indicator: TA98, Metabolic Activation: RAT, LIVER, S-9, AROCLOR 1254, Method: STANDARD PLATE) “inactive; negative”; under setting [1], “inactive; negative”; (Test System: AMES SALMONELLA TYPHIMURIUM, Strain/Indicator: TA100, Metabolic Activation: RAT, LIVER, S-9, AROCLOR 1254, Method: STANDARD PLATE) “inactive; negative”.
Regarding `FC(F)(F)C(F)(F)C(F)(F)C(F)(F)I`, the mutagenic call (End Point: IN VITRO CHROMOSOMAL ABERRATIONS, Test System: HUMAN PERIPHERAL BLOOD LYMPHOCYTES, Metabolic Activation: NONE) is “inactive; negative”; the mutagenic call (End Point: IN VITRO CHROMOSOMAL ABERRATIONS, Test System: HUMAN PERIPHERAL BLOOD LYMPHOCYTES, Metabolic Activation: RAT, LIVER, S-9, AROCLOR 1254) is “inactive; negative”; the mutagenic call (Test System: AMES SALMONELLA TYPHIMURIUM, Strain/Indicator: TA98, Metabolic Activation: NONE) was “inactive; negative”; the mutagenic call (Test System: AMES SALMONELLA TYPHIMURIUM, Strain/Indicator: TA98, Metabolic Activation: RAT, LIVER, S-9, AROCLOR 1254) is “inactive; negative”; the mutagenic call (Test System: AMES SALMONELLA TYPHIMURIUM, Strain/Indicator: TA100, Metabolic Activation: NONE) was “inactive; negative”; the mutagenic call (Test System: AMES SALMONELLA TYPHIMURIUM, Strain/Indicator: TA100, Metabolic Activation: RAT, LIVER, S-9, AROCLOR 1254) is “inactive; negative”. Also, the mutagenic call runs as follows: (Test System: AMES SALMONELLA TYPHIMURIUM, Strain/Indicator: TA1535, Metabolic Activation: NONE) “inactive; negative”; (Test System: AMES SALMONELLA TYPHIMURIUM, Strain/Indicator: TA1535, Metabolic Activation: RAT, LIVER, S-9, AROCLOR 1254) “inactive; negative”; (Test System: AMES SALMONELLA TYPHIMURIUM, Strain/Indicator: TA1537, Metabolic Activation: NONE) “inactive; negative”; (Test System: AMES SALMONELLA TYPHIMURIUM, Strain/Indicator: TA1537, Metabolic Activation: RAT, LIVER, S-9, AROCLOR 1254) “inactive; negative”; (Test System: E. COLI, Strain/Indicator: WP2UVRA, Metabolic Activation: NONE) “inactive; negative”; (Test System: E. COLI, Strain/Indicator: WP2UVRA, Metabolic Activation: RAT, LIVER, S-9, AROCLOR 1254) “inactive; negative”.
On to `OCCN(CCO)c1ccc2ccccc2c1`, for which the mutagenic call is, setting by setting: under setting [1], “inactive; negative”; (Test System: AMES SALMONELLA TYPHIMURIUM, Strain/Indicator: TA100, Metabolic Activation: RAT, LIVER, S-9, AROCLOR (10%), Method: STANDARD PLATE) “active; positive”.
`C=C(CN(C)C)C(=O)c1ccccc1`: the mutagenic call was “inactive; negative” (Test System: AMES SALMONELLA TYPHIMURIUM, Strain/Indicator: TA97A, Metabolic Activation: NONE, Method: SPOT TEST); “inactive; negative” (Test System: AMES SALMONELLA TYPHIMURIUM, Strain/Indicator: TA97A, Metabolic Activation: RAT LIVER S-9, Method: SPOT TEST); “inactive; negative” (Test System: AMES SALMONELLA TYPHIMURIUM, Strain/Indicator: TA98, Metabolic Activation: NONE, Method: SPOT TEST); “inactive; negative” (Test System: AMES SALMONELLA TYPHIMURIUM, Strain/Indicator: TA98, Metabolic Activation: RAT LIVER S-9, Method: SPOT TEST); “inactive; negative” (Test System: AMES SALMONELLA TYPHIMURIUM, Strain/Indicator: TA100, Metabolic Activation: NONE, Method: SPOT TEST); “active; positive” (Test System: AMES SALMONELLA TYPHIMURIUM, Strain/Indicator: TA100, Metabolic Activation: RAT LIVER S-9, Method: SPOT TEST). The mutagenic call reads like this: (Test System: AMES SALMONELLA TYPHIMURIUM, Strain/Indicator: TA102, Metabolic Activation: NONE, Method: SPOT TEST) “inactive; negative”; (Test System: AMES SALMONELLA TYPHIMURIUM, Strain/Indicator: TA102, Metabolic Activation: RAT LIVER S-9, Method: SPOT TEST) “inactive; negative”; (Test System: AMES SALMONELLA TYPHIMURIUM, Strain/Indicator: TA104, Metabolic Activation: NONE, Method: SPOT TEST) “inactive; negative”; (Test System: AMES SALMONELLA TYPHIMURIUM, Strain/Indicator: TA104, Metabolic Activation: RAT LIVER S-9, Method: SPOT TEST) “inactive; negative”; (Test System: AMES SALMONELLA TYPHIMURIUM, Strain/Indicator: TA1535, Metabolic Activation: NONE, Method: SPOT TEST) “inactive; negative”; (Test System: AMES SALMONELLA TYPHIMURIUM, Strain/Indicator: TA1538, Metabolic Activation: NONE, Method: SPOT TEST) “inactive; negative”.
For the compound `C=C(C=O)C[C@@H]1C[C@H](O)[C@@H]2O[C@@H]3C[C@@H]4O[C@@H]5/C=C\C[C@@H]6O[C@H]7[C@H](C/C=C\C[C@H]6O[C@H]5CCC[C@H]4O[C@H]3C[C@H]2O1)O[C@@H]1C[C@@H]2O[C@@H]3CC(=O)O[C@H]3C[C@@H](C)C[C@@]2(C)O[C@H]1C[C@@H]7C`, the mutagenic call (End Point: In vitro chromosomal aberrations, Test System: Chinese hamster ovary (CHO-K1-BH4) cells, Metabolic Activation: None) is “active; positive (structural changes)”.
